In patent US4895834A, “Renin inhibitors III” (Warner-Lambert Company, priority 1987, dated 1990):

Target: T1, renin (Homo sapiens, UniProt P00797)
T1 sequence (P00797 67-406): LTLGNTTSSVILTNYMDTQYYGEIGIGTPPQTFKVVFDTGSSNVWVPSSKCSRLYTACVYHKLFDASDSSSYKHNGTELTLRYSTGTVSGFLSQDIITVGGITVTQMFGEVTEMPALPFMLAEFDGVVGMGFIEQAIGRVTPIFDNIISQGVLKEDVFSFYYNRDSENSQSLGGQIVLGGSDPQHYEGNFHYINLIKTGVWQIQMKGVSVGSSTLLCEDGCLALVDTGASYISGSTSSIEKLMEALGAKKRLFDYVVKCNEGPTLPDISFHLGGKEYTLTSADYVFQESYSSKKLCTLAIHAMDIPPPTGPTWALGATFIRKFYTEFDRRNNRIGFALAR
Assay: in vitro renin inhibitory activity, radioimmunoassay for angiotensin I
Type: biochemical
Settings: molar concentration causing 50% inhibition of renin activity; renin incubated two hours at 37° with angiotensinogen
Protocol: The effectiveness of the aforementioned compound is determined by a test for in vitro renin inhibitory activity. This activity is determined by a standard radioimmunoassay for angiotensin I. In this assay the enzyme, renin, incubated for two hours at 37° in the presence of a substrate, angiotensinogen, generates the product, angiotensin I. Test compounds are added to the incubation mixture. Relative activity is reported as the IC50, which is the molar concentration of test compound causing a 50% inhibition of the renin activity.

| IC50 [nM] | SMILES |
| --- | --- |
| 560 | CC[C@H](C)CNC(=O)C[C@H](O)[C@H](CC(C)C)NC(=O)[C@H](Cc1c[nH]cn1)NC(=O)C(Cc1cccc2ccccc12)C(=O)OC(C)(C)C (some centres unmarked) [Example 2] |
| 220 | CC(C)C[C@H](NC(=O)[C@H](Cc1c[nH]cn1)NC(=O)C(Cc1cccc2ccccc12)Cc1cccc2ccccc12)[C@@H](O)CC(=O)NCC(O)CSC(C)C (some centres unmarked) [Example 3, DNMA-HIS-STA-NHCH2 CH(OH)CH2 SCH(CH3)2] |
| 82 | CC(C)C[C@H](NC(=O)[C@H](Cc1c[nH]cn1)NC(=O)C(Cc1cccc2ccccc12)Cc1cccc2ccccc12)[C@@H](O)CC(=O)NCC(O)CS(=O)(=O)C(C)C (some centres unmarked) [Example 4, DNMA-HIS-STA-NHCH2 CH(OH)CH2 SO2 CH(CH3)2] |
| 2200 | CC(C)C[C@H](NC(=O)C[C@H](O)[C@H](CC(C)C)NC(=O)[C@H](Cc1c[nH]cn1)NC(=O)C(Cc1ccccc1)SCc1ccccc1)C(=O)NCc1ccccc1 (some centres unmarked) [Example 11] |
| 980 | CC(C)C[C@H](NC(=O)C[C@H](O)[C@H](CC1CCCCC1)NC(=O)[C@H](CC(=O)O)NC(=O)C(Cc1cccc2ccccc12)Cc1cccc2ccccc12)C(=O)NCc1ccccc1 [Example 17, DNMA-ASP-CYSTA-LEU-NHCH2 Ph] |
| 4100 | CC(C)C[C@H](NC(=O)C[C@H](O)[C@H](CC(C)C)NC(=O)[C@H](Cc1cnc[nH]1)N(C)C(=O)C(Cc1cccc2ccccc12)Cc1cccc2ccccc12)C(=O)NCc1ccccc1 [Example 20, DNMA-(N-MeHIS)-STA-LEU-NHCH2 Ph] |
| 4000 | CC(C)C[C@H](NC(=O)[C@H](Cc1c[nH]cn1)NC(=O)C(Cc1cccc2ccccc12)Cc1cccc2ccccc12)[C@@H](O)CC(=O)NCc1cccc(CNC(=O)OCc2ccccc2)c1 [Example 22] |

Tested on: renin maintained blood pressure (Hog renin infused)
Assay: lowering renin maintained blood pressure in the anesthetized, vagotomized, ganglionic-blocked rat (hog renin infused)
Type: in vivo
Settings: 1 mg/kg IV
Protocol: The effectiveness of the aforementioned compounds in vivo is determined by their effect on lowering renin maintained blood pressure in the anesthetized, vagotomized, ganglionic-blocked rat.
After the blood pressure has stabilized, 1.25 mg/kg IV mecamylamine is added to produce ganglionic blockade. Hog renin is then infused to bring the blood pressure to a level observed before vagotomy and ganglionic blockade. Test compound is then administered IV and the drop in blood pressure is noted.
The compound was administered at as dose of 1 mg/kg.

| SMILES | Percent Decrease of Blood Pressure [%] |
| --- | --- |
| CC(C)C[C@H](NC(=O)C[C@H](O)[C@H](CC(C)C)NC(=O)[C@H](Cc1c[nH]cn1)NC(=O)C(Cc1cccc2ccccc12)Cc1cccc2ccccc12)C(=O)NCc1ccccc1 [Example 1, DNMA-HIS-STA-LEU-NHCH2 Ph] | 65 |
